The values that follow are results of earlier work, collected in the CATMoS acute toxicity set (Mansouri et al. 2021).

One may read the LD50 as the dose at which mortality reaches 50%.

A short description of this data set: rat acute oral toxicity. To be noted: in vivo.
For `Cc1ccc(C)nc1`, the LD50 is 800 mg/kg.

For `N#CC(O)c1cccc(Oc2ccccc2)c1` (centres undefined), the 50% lethal dose (LD50) is 800 mg/kg.

Take `Cc1ccc(C)c([N+](=O)[O-])c1`: the LD50 was 2440 mg/kg.

`Cn1cc(C(O)=Nc2cccc3c2C2CCC3C2=C(Cl)Cl)c(C(F)F)n1` (centres undefined): the LD50 is 55 mg/kg.

Regarding `CN(N=O)C(C)(C)c1ccccc1`, the LD50 is 2100 mg/kg.

On to `CCCCS`, for which the LD50 was 1500 mg/kg.

For the molecule `CC(=O)N(O)CCCCCNC(=O)CCC(=O)N(O)CCCCCNC(=O)CCC(=O)N(O)CCCCCN`, the LD50 is 17300 mg/kg.

Turning to `CCOC(=O)c1ccc(N)cc1`, the LD50 was 3040 mg/kg.

On to `CCN(CCCl)c1ccccc1`, for which the LD50 was 616 mg/kg.

As for `CO[Si](CCCN=C=O)(OC)OC`, the LD50 is 878 mg/kg.

Take `CCOP(=S)(CCl)Oc1ccc(C#N)cc1OC` (centres undefined): the LD50 was 71 mg/kg.

`N=C(N)NC(=O)Cc1c(Cl)cccc1Cl`: the LD50 was 142 mg/kg.

Regarding `N#Cc1ccccc1CN1CCc2sccc2C1`, the LD50 was 228 mg/kg.

`CNc1ccc(C(O)(c2ccc(N(C)C)cc2)c2ccc(N(C)C)cc2)cc1`: the median lethal dose (LD50) is 500 mg/kg.

Take `CCO/N=C(\OC(=O)c1ccccc1)c1c(OC)ccc(Cl)c1OC`: the LD50 was 15000 mg/kg.

For `COP(=S)(OC)SC1CCSc2ccccc21` (centres undefined), the LD50 was 5 mg/kg.

`O=C(OC(=O)C(Cl)Cl)C(Cl)Cl`: the 50% lethal dose (LD50) is 2820 mg/kg.

For the molecule `O=C(O)CCCC(=O)O`, the 50% lethal dose (LD50) is 6000 mg/kg.

Turning to `CCCCCC1CNC(C(=O)NC(C(C)Cl)C2OC(SC)C(O)C(O)C2O)C1` (centres undefined), the LD50 is 1100 mg/kg.

Take `ClC(Cl)c1cccc(Oc2ccccc2)c1`: the LD50 is 6000 mg/kg.

Turning to `CCNCc1cc([N+](=O)[O-])ccc1O`, the LD50 is 1010 mg/kg.

As for `O=C1c2ccccc2C(=O)N1SC1CCCCC1`, the LD50 is 2600 mg/kg.

As for `C#CCOc1ccc(N)cc1C(=O)NCCCC`, the LD50 is 864 mg/kg.

Consider `CN(C)CCCSc1ccccc1NC(=O)C=Cc1ccccc1`, for which the LD50 is 1500 mg/kg.

For `CCOC(=O)c1cnn(C)c1-n1cnc2ccccc2c1=O`, the LD50 is 1760 mg/kg.

On to `C[Si](Cl)(Cl)Cl`, for which the 50% lethal dose (LD50) was 800 mg/kg.

For the molecule `CCOC(=S)SCC#N`, the LD50 was 210 mg/kg.

Take `CCCCCCCCCCOC(=O)c1ccccc1C(=O)OCCCCCCCC`: the LD50 was 45000 mg/kg.

Regarding `COP(=S)(OC)Oc1ccc(SC)c(C)c1`, the LD50 is 180 mg/kg.

In the case of `CCOCN(C(=O)CO)c1c(C)cccc1CC`, the LD50 was 2400 mg/kg.

In the case of `CN1C(=O)C2C=CC1c1ccccc12` (centres undefined), the LD50 was 806 mg/kg.

Consider `CCSC(=O)N(CC)CC`, for which the LD50 is 400 mg/kg.

In the case of `O=C(O)C(F)(F)C(F)(F)C(F)(F)C(F)(F)C(F)(F)C(F)(F)C(F)(F)C(F)F`, the LD50 was 821 mg/kg.

For the molecule `CCCCC(=O)Cc1ccccc1`, the median lethal dose (LD50) was 4400 mg/kg.

Take `CCn1c2c(c3cc(N)ccc31)CCCC2`: the median lethal dose (LD50) was 198 mg/kg.

Take `O=C(O)c1cc(N=Nc2ccc(-c3ccc(N=Nc4c(O)ccc(/N=N/c5cc(S(=O)(=O)O)ccc5O)c4O)cc3)cc2)ccc1O`: the LD50 is 12100 mg/kg.

Take `c1ccc(C2CC(N3CCCC3)CC(c3ccccc3)C2c2ccccn2)cc1` (centres undefined): the LD50 was 479 mg/kg.

As to `C[C@H](CN1CCCC1)C(=O)c1ccc(C(F)(F)F)cc1`, the LD50 was 525 mg/kg.

As to `CCN(N=O)C(=O)NC(N)=O`, the 50% lethal dose (LD50) is 1050 mg/kg.

For `CCOC(=O)Cc1ccc(-c2ccccc2)cc1`, the LD50 was 385 mg/kg.

With `O=C(O)Cc1csc(-c2ccc(Cl)cc2)n1`, the 50% lethal dose (LD50) was 850 mg/kg.

`Fc1c(Br)c(Br)c2nc(C(F)(F)F)[nH]c2c1Br`: the LD50 is 9.64 mg/kg.

Turning to `COP(=S)(OC)SCn1nc(-c2ccccc2)ccc1=O`, the 50% lethal dose (LD50) was 18800 mg/kg.

As to `CSc1ccc(OP(C)(C)=S)cc1C`, the LD50 is 175 mg/kg.

For `CC1CC=CC2C3OC3(C)C(C)C3C(Cc4ccccc4)NC(=O)C23OC(=O)OC=CC(C)(O)C1=O` (centres undefined), the LD50 was 9.1 mg/kg.

On to `CCN(CC)CCOc1ccc(C2=C(c3ccccc3)CCc3cc(OC)ccc32)cc1`, for which the LD50 was 547 mg/kg.

Consider `COc1ccc(-c2ccccc2)cc1CN1CCCC1`, for which the LD50 was 28 mg/kg.

As for `CCCCCCCCCCCCN=C([O-])C[N+](C)(C)Cc1ccccc1`, the LD50 was 100 mg/kg.

`CCCCC(CC)COC(C[n+]1ccccc1)c1ccc(C2CCCCC2)cc1` (centres undefined): the median lethal dose (LD50) is 250 mg/kg.

For the molecule `CC(=O)N(C)C(=O)Oc1cccc(C(C)(C)C)c1`, the LD50 is 1000 mg/kg.

On to `O=c1c2ccccc2n(-c2cccc(C(F)(F)F)c2)c(=O)n1CCO`, for which the LD50 was 810 mg/kg.

For the molecule `Fc1c(Cl)c(Cl)c(Cl)c2[nH]c(C(F)(F)F)nc12`, the LD50 was 0.847 mg/kg.

`COc1ccc(-c2nc3ccc(C4=NNC(=O)CC4C)cc3[nH]2)cc1` (centres undefined): the LD50 is 950 mg/kg.

With `CCCCN(N=O)C(N)=O`, the LD50 was 400 mg/kg.

For the molecule `CCNCC(O)c1cccc(O)c1` (centres undefined), the LD50 was 114 mg/kg.

Regarding `COc1ccccc1C1C(Cl)C(=O)N1c1ccccc1C(=O)O` (centres undefined), the LD50 was 2400 mg/kg.

As to `C=CCCC(=O)Cl`, the LD50 is 470 mg/kg.

With `CCCCC(CC)(COC(N)=O)COC(N)=O`, the LD50 is 662 mg/kg.

Turning to `CC[C@@]1(O)C[N@@]2CC[C@H]1C[C@@H]2[C@@H](O)c1ccnc2ccc(OC)cc12`, the LD50 is 600 mg/kg.
